Data from ChEMBL document CHEMBL3868599, “Strategy for designing selective α-l-rhamnosidase inhibitors: Synthesis and biological evaluation of l-DMDP cyclic isothioureas” (Bioorg Med Chem, 2017).

How the values were obtained:
[1] = Inhibition of Penicillium decumbens alpha-L-rhamnosidase
Penicillium decumbens [2] = assay: Inhibition of Penicillium decumbens alpha-L-rhamnosidase at 100 uM using p-nitrophenyl-glycoside as substrate by spectrophotometric method
Prunus dulcis [3] = assay: Inhibition of almond beta-glucosidase at 100 uM using p-nitrophenyl-glycoside as substrate by spectrophotometric method
[4] = Inhibition of bovine liver beta-glucosidase using p-nitrophenyl-glycoside as substrate by spectrophotometric method; set-up: species or system Bos taurus
[5] = Inhibition of human lysosomal beta-glucosidase using 4-methylumbelliferyl-beta-D-glucopyranoside as substrate preincubated for 45 mins followed by substrate addition measured after 30 mins by fluorescence spectrophotometric method
Oryza sativa [6] = assay: Inhibition of rice alpha-glucosidase at 100 uM using p-nitrophenyl-glycoside as substrate by spectrophotometric method
Rattus norvegicus [7] = organism: Rattus norvegicus; assay: Inhibition of rat intestinal maltase assessed as D-glucose level at 100 uM using maltose as substrate measured after 10 to 30 mins
Beta-galactosidase = biological target: T1, Beta-galactosidase (Bos taurus, UniProt Q58D55); assay: Inhibition of bovine liver beta-galactosidase using p-nitrophenyl-glycoside as substrate by spectrophotometric method
T1 sequence (Q58D55 whole entry): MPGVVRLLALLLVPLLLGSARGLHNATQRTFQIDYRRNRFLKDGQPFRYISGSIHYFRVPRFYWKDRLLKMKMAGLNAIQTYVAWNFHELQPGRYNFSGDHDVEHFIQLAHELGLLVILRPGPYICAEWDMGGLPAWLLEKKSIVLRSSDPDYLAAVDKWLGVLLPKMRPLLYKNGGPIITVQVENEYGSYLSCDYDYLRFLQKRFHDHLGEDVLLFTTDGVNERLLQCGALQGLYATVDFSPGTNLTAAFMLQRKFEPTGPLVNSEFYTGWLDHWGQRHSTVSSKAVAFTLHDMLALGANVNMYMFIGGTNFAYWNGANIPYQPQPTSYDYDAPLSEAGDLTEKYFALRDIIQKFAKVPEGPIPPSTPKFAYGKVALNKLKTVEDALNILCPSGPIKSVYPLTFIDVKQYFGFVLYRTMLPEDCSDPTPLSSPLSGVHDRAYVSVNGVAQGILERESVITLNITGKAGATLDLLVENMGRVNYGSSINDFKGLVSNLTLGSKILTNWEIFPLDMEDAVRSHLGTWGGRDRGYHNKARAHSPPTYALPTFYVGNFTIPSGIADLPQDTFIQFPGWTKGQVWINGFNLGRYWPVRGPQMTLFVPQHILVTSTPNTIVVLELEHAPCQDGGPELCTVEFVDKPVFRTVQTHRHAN

Aspergillus niger [8] = assay: Inhibition of Aspergillus niger amyloglucosidase assessed as D-glucose level at 100 uM using maltose as substrate measured after 10 to 30 mins
[9] = biological target: T2, Tissue alpha-L-fucosidase (Bos taurus) (UniProt Q2KIM0); assay: Inhibition of bovine kidney alpha-L-fucosidase at 100 uM using p-nitrophenyl-glycoside as substrate by spectrophotometric method
T2 sequence (whole entry): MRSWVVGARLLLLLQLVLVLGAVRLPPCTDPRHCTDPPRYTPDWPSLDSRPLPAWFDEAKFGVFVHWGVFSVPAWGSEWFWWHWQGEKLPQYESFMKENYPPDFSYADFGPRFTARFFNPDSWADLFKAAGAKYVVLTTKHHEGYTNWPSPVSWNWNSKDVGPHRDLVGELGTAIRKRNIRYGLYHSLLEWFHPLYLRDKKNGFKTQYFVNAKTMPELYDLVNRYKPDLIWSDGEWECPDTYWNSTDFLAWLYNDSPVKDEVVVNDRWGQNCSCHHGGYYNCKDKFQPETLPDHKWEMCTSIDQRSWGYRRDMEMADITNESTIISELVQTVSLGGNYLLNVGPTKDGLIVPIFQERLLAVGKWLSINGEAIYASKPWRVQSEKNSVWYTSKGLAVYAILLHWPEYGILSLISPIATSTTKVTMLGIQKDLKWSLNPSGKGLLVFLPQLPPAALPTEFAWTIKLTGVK

[10] = biological target: T3, Uncharacterized protein (Sus scrofa) (UniProt I3LIR5); assay: Inhibition of porcine kidney trehalase assessed as D-glucose level at 100 uM using maltose as substrate measured after 10 to 30 mins
T3 sequence (whole entry): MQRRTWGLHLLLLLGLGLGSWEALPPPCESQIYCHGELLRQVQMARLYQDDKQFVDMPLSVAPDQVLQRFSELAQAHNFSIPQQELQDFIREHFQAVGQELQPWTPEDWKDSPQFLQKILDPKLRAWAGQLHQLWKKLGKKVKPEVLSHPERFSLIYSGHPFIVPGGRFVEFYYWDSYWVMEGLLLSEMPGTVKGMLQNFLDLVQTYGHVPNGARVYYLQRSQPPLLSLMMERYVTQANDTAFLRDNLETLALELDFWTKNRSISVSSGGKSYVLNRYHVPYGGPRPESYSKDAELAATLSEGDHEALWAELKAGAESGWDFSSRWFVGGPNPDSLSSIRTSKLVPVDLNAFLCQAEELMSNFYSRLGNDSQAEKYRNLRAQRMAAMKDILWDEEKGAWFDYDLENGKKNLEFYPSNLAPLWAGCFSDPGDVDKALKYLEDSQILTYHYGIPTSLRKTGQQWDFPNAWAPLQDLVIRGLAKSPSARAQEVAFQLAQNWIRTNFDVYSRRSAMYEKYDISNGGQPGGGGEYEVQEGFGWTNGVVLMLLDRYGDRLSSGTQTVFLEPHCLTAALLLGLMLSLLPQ

Escherichia coli [11] = assay: Inhibition of Escherichia coli beta-glucuronidase at 100 uM using p-nitrophenyl-glycoside as substrate by spectrophotometric method
Penicillium decumbens [12] = assay: Inhibition of Penicillium decumbens alpha-L-rhamnosidase at 1000 uM using p-nitrophenyl-glycoside as substrate by spectrophotometric method
Prunus dulcis [13] = assay: Inhibition of almond beta-glucosidase at 1000 uM using p-nitrophenyl-glycoside as substrate by spectrophotometric method
Bos taurus = organism: Bos taurus; assay: Inhibition of bovine liver beta-glucosidase at 1000 uM using p-nitrophenyl-glycoside as substrate by spectrophotometric method
Aspergillus niger [14] = assay: Inhibition of Aspergillus niger amyloglucosidase assessed as D-glucose level at 1000 uM using maltose as substrate measured after 10 to 30 mins
Oryza sativa [15] = assay: Inhibition of rice alpha-glucosidase at 1000 uM using p-nitrophenyl-glycoside as substrate by spectrophotometric method
Rattus norvegicus [16] = organism: Rattus norvegicus; assay: Inhibition of rat intestinal maltase assessed as D-glucose level at 1000 uM using maltose as substrate measured after 10 to 30 mins
[17] = biological target: T4, Beta-galactosidase (Bos taurus) (UniProt Q58D55); assay: Inhibition of bovine liver beta-galactosidase at 1000 uM using p-nitrophenyl-glycoside as substrate by spectrophotometric method
T4 sequence (whole entry): T1 sequence (Q58D55 whole entry)

[18] = biological target: T2, Tissue alpha-L-fucosidase (Bos taurus); assay: Inhibition of bovine kidney alpha-L-fucosidase at 1000 uM using p-nitrophenyl-glycoside as substrate by spectrophotometric method
[19] = biological target: T3, Uncharacterized protein (Sus scrofa); assay: Inhibition of porcine kidney trehalase assessed as D-glucose level at 1000 uM using maltose as substrate measured after 10 to 30 mins
Escherichia coli [20] = assay: Inhibition of Escherichia coli beta-glucuronidase at 1000 uM using p-nitrophenyl-glycoside as substrate by spectrophotometric method
[21] = Inhibition of Penicillium decumbens alpha-L-rhamnosidase using p-nitrophenyl-glycoside as substrate by spectrophotometric method
Homo sapiens [22] = organism: Homo sapiens; assay: Inhibition of human lysosomal beta-glucosidase at 1000 uM using 4-methylumbelliferyl-beta-D-glucopyranoside as substrate preincubated for 45 mins followed by substrate addition measured after 30 mins by fluorescence spectrophotometric method
Homo sapiens [23] = organism: Homo sapiens; assay: Inhibition of human lysosomal beta-glucosidase at 100 uM using 4-methylumbelliferyl-beta-D-glucopyranoside as substrate preincubated for 45 mins followed by substrate addition measured after 30 mins by fluorescence spectrophotometric method

OC[C@@H]1[C@H](O)[C@@H](O)[C@@H]2CCCCN12
3.3 µM: IC50 [1]

CCCCCCCCCC/N=C1/SC[C@@H]2[C@@H](O)[C@H](O)[C@@H](CO)N12
93 µM: IC50 (Beta-galactosidase)
63 µM: IC50 [4]
< 50%: inhibition (Penicillium decumbens [2]) | inhibition (Prunus dulcis [3]) | inhibition (Oryza sativa [6]) | inhibition (Rattus norvegicus [7]) | inhibition (Aspergillus niger [8]) | inhibition [9] | inhibition [10] | inhibition (Escherichia coli [11])
1 µM: IC50 [5]

CCCC/N=C1/SC[C@@H]2[C@@H](O)[C@H](O)[C@@H](CO)N12
< 50%: inhibition (Penicillium decumbens [12]) | inhibition (Prunus dulcis [13]) | inhibition (Bos taurus) | inhibition (Aspergillus niger [14]) | inhibition (Oryza sativa [15]) | inhibition (Rattus norvegicus [16]) | inhibition [17] | inhibition [18] | inhibition [19] | inhibition (Escherichia coli [20])
532 µM: IC50 [5]

OC[C@H]1[C@H](O)[C@@H](O)[C@@H]2CS/C(=N/Cc3ccc(Cl)cc3)N12
0.89 µM: IC50 [21]

OC[C@H]1[C@H](O)[C@@H](O)[C@@H]2CS/C(=N/Cc3ccc(Cl)cc3Cl)N12
0.8 µM: IC50 [21]

Cc1ccc(C/N=C2/SC[C@H]3[C@H](O)[C@@H](O)[C@H](CO)N23)cc1
1.2 µM: IC50 [21]

CCCCCCNC(=S)N1[C@H](CO)[C@@H](O)[C@H](O)[C@H]1CO
< 50%: inhibition (Penicillium decumbens [12]) | inhibition (Prunus dulcis [13]) | inhibition (Bos taurus) | inhibition (Homo sapiens [22]) | inhibition (Aspergillus niger [14]) | inhibition (Oryza sativa [15]) | inhibition (Rattus norvegicus [16]) | inhibition [18] | inhibition [19] | inhibition (Escherichia coli [20])
1000 µM: IC50 (Beta-galactosidase)

OC[C@H]1[C@@H](O)[C@@H](O)CN1Cc1ccccc1
21 µM: IC50 [1]

CCCCCCCCCCCC/N=C1/SC[C@H]2[C@H](O)[C@@H](O)[C@H](CO)N12
9.5 µM: IC50 [4]
< 50%: inhibition (Prunus dulcis [3]) | inhibition (Oryza sativa [6]) | inhibition (Rattus norvegicus [7]) | inhibition (Aspergillus niger [8]) | inhibition [9] | inhibition [10] | inhibition (Homo sapiens [23]) | inhibition (Escherichia coli [11])
0.46 µM: IC50 [21]
11 µM: IC50 (Beta-galactosidase)

OC[C@H]1[C@H](O)[C@@H](O)[C@@H]2CS/C(=N/Cc3cc(Cl)c(Cl)c(Cl)c3)N12
0.45 µM: IC50 [21]

OC[C@H]1[C@H](O)[C@@H](O)[C@@H]2CS/C(=N/Cc3cccc(Cl)c3)N12
0.7 µM: IC50 [21]

CCCCNC(=S)N1[C@H](CO)[C@@H](O)[C@H](O)[C@H]1CO
< 50%: inhibition (Penicillium decumbens [12]) | inhibition (Prunus dulcis [13]) | inhibition (Bos taurus) | inhibition (Homo sapiens [22]) | inhibition (Aspergillus niger [14]) | inhibition (Oryza sativa [15]) | inhibition (Rattus norvegicus [16]) | inhibition [17] | inhibition [18] | inhibition [19] | inhibition (Escherichia coli [20])

OC[C@H]1[C@@H](O)[C@H](O)[C@@H]2CS/C(=N/Cc3ccc(Cl)c(Cl)c3)N12
9.3%: inhibition (Penicillium decumbens [12])
